Experimental data from US20240208909A1, “SUBSTITUTED QUINOLINE DERIVATIVES HAVING SOS1 INHIBITION ACTIVITIES AND USES THEREOF” (Accutar Biotechnology Inc., priority 2022, published 2024).

Assays:
[1] = system: Phospho-ERK1/2 in DLD1 cells; experiment: Phospho-ERK1/2 expression inhibition in DLD1 cells; assay type: cell-based; conditions: Homo sapiens, DLD-1, 4 hours, read-out: DLD1 pERK IC50
Protocol: Example 23: Phospho-ERK1/2 Expression Inhibition in DLD1 Cells
DLD1 cells were obtained from American Type Culture Collection (ATCC). DLD1 cells were plated in 96-well plates (VWR #10062-900, or Corning #3904) in 90 uL culture medium at a density of 15,000 cells/well in the RPM11640 growth medium containing 10% FBS and 1% Penicillin Streptomycin, and then incubated at 37° C. overnight. The following day, the test compound was administered to the cells by using 1000×x compound stock solution prepared in DMSO at various concentrations. 1000× compound stock solution was first diluted in culturing medium to 10×, then 10 uL compound medium was added to each well in the cell plates. After administration of the compound, the cells were then incubated at 37° C. for 4 hours. Upon completion, the cells were washed with PBS briefly. 150 uL/well of 4% formaldehyde was added and the plates were incubated at room temperature for 20 mins. The cells were washed with PBS briefly, and permeabilized with 150 uL/well of ice cold 100% methanol for 10 mins. The cells were washed with PBS briefly and blocked with 100 uL/well LI-COR blocking buffer for 1 hr at room temperature with gentle shaking. The cells were incubated overnight at 4° C. with 50 uL primary antibody rabbit anti-Phospho-ERK1/2 (1: 500, Cell Signaling, #4370) diluted in Intercept Blocking Buffer (LI-COR, #927-60001) containing 0.1% Tween 20. The next day, the cells were washed with 200 uL PBS containing 0.1% Tween 20, 5×5 mins at room temperature with gentle shaking, and incubated with 50 uL secondary antibody, IRDye® 800CW Goat anti-Rabbit IgG (LI-COR, #926-32211), 1:1000, in LI-COR blocking buffer with 0.2% Tween 20 for 1 hr at room temperature with gentle shaking. The cells were washed with 200 uL PBS containing 0.1% Tween 20, 5×5 mins at room temperature with gentle shaking. The cells were washed with PBS for 5 mins. 100 uL fresh PBS was added to each well and the plates were imaged on a LI-COR Odyssey CLX plate reader.

[2] = biological target: SOS1/KRAS-G12D (Homo sapiens (Human), UniProt Q07889); experiment: SOS1/KRAS-G12D binding inhibition assay (AlphaScreen); conditions: GST-SOS1 and 6*His KRAS-G12D, read-out: KrasG12D/SOS1 binding IC50
Protocol: Example 22: SOS1/KRAS-G12D Binding Inhibition Assay
SOS1 binding affinity of candidate compounds was measured by monitoring the interaction of SOS1 with KRAS-G12D in the presence of the test compound. Briefly, 5 nM GST tagged SOS1 proteins (final concentration) were pre-incubated with 50 nM 6*His tagged KRAS-G12D proteins (final concentration) in an assay buffer containing 10 mM HEPES, pH 7.4, 150 mM NaCl, 1 mM DTT, 5 mM MgCl2, 0.1% Tween-20, and 0.05% BSA for 30 minutes. The test compounds in 2% DMSO (final concentration) at various concentrations were then added to the reaction mixture and incubated for another 30 minutes at 4° C. 5 ug/ml GSH AlphaScreen donor beads (PerkinElmer, 6765300) and 5 ug/ml nickel chelate (Ni-NTA) AlphaScreen acceptor beads (PerkinElmer, 6760619C) (final concentrations) were then added to the mixture. After an incubation of 2 hours at 4° C., the fluorescent signals were obtained on the EnVision® 2105 Multilabel Plate Reader (PerkinElmer).
Raw AlphaScreen data were converted to a percentage of inhibition (relative to DMSO) using the following equations: • a) For a given test compound concentration X:
Signal (X)=Signal (SOS1 & KRAS-G12D & compound)-Signal (buffer & KRAS-G12D & compound)
Percentage of inhibition at concentration X=[1−Signal (X)/Signal (DMSO)]*100% b)
The IC50 values were determined by nonlinear regression of plots of [inhibitor] vs. percentage of inhibition with variable slope, analyzed using GraphPad Prism 9.

[3] = system: K562 cells; experiment: Cell growth inhibition of K562 cells (CellTiter-Glo); assay type: cell-based; conditions: Homo sapiens, 120 h, 5 days
Protocol: Example 24: Cell Growth Inhibition of K562 Cells
K562 cells were obtained from American Type Culture Collection (ATCC). For cell growth assay, K562 cells were seeded in 96-well plates at 1000 cells/well in 90 μl of RPM11640 growth medium containing 10% FBS and 1% Penicillin Streptomycin, and then incubated at 37° C. for 1 hour. The test compound was administered to the cells by using 1000× compound stock solution prepared in DMSO at various concentrations. 1000× compound stock solution was first diluted in culturing medium to 10×, then 10 uL compound medium was added to each well in the cell plates. After administration of the compound, the cells were then incubated at 37° C. for 5 days. Upon completion, the plates were equilibrated at room temperature for approximately 10 minutes. 100 ul of CellTiter-Glo® Reagent (Promega) was added to each well. The plates were then incubated at room temperature for 10 minutes and luminescence was recorded by EnSpire plate reader (PerkinElmer).

SOS1/KRAS-G12D, sequence (Q07889 564-1049 limits assumed): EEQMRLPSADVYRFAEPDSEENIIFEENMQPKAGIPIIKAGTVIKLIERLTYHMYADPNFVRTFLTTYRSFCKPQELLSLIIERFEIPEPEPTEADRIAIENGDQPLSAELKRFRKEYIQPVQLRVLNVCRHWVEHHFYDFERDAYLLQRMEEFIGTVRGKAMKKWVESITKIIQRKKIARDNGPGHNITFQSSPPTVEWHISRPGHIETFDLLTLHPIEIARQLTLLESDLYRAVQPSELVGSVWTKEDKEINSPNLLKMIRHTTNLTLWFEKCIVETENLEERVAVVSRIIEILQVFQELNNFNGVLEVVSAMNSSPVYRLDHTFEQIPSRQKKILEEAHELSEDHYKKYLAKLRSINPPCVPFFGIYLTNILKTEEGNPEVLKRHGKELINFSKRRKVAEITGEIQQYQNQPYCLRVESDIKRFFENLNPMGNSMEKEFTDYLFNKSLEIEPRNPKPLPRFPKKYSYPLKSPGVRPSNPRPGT

SMILES: Cc1c([C@@H](C)Nc2ccnc3ccc(N4CC5(CCN(C)C5=O)C4)cc23)cccc1C(F)(F)F [Compound 21, (R)-6-methyl-2-(4-((1-(2-methyl-3-(trifluoromethyl)phenyl)ethyl)amino)quinolin-6-yl)-2,6-diazaspiro[3.4]octan-5-one]
- IC50 [1]: > 500 nM
- IC50 [2]: > 100 nM
- GI50 [3]: > 500 nM

SMILES: COC1(c2ccc3nccc(N[C@H](C)c4cccc(C(F)F)c4F)c3c2)CCN(C(C)=O)CC1 [Compound 72, (R)-1-(4-(4-((1-(3-(difluoromethyl)-2-fluorophenyl)ethyl)amino)quinolin-6-yl)-4-methoxypiperidin-1-yl)ethan-1-one]
- IC50 [1]: ≤ 150 nM
- IC50 [2]: ≤ 10 nM
- GI50 [3]: ≤ 100 nM

SMILES: CC(=O)N1C2CC1CN(c1ccc3nccc(N[C@H](C)c4cccc(C(F)(F)F)c4C)c3c1)C2 [Compound 64, 1-(3-(4-(((R)-1-(2-methyl-3-(trifluoromethyl)phenyl)ethyl)amino)quinolin-6-yl)-3,6-diazabicyclo[3.1.1]heptan-6-yl)ethan-1-one]
- IC50 [1]: > 500 nM
- IC50 [2]: 10 to 100 nM
- GI50 [3]: > 500 nM

SMILES: Cc1c([C@@H](C)Nc2c(C#N)cnc3ccc(N4CCNCC4)cc23)cccc1C(F)(F)F [Compound 2, (R)-4-((1-(2-methyl-3-(trifluoromethyl)phenyl)ethyl)amino)-6-(piperazin-1-yl)quinoline-3-carbonitrile]
- IC50 [2]: > 100 nM
- GI50 [3]: > 500 nM

SMILES: Cc1c([C@@H](C)Nc2ccnc3ccc(N4CCN[C@H](C)C4)cc23)cccc1C(F)(F)F [Compound 50, N-((R)-1-(2-methyl-3-(trifluoromethyl)phenyl)ethyl)-6-((R)-3-methylpiperazin-1-yl)quinolin-4-amine]
- IC50 [1]: > 500 nM
- IC50 [2]: 10 to 100 nM
- GI50 [3]: 100 to 500 nM

SMILES: CC(=O)N1CCN(c2ccc3nccc(N[C@H](C)c4cccc(C(F)(F)F)c4C)c3c2)[C@H](C)C1 [Compound 67, 1-((R)-3-methyl-4-(4-(((R)-1-(2-methyl-3-(trifluoromethyl)phenyl)ethyl)amino)quinolin-6-yl)piperazin-1-yl)ethan-1-one]
- IC50 [1]: > 500 nM
- GI50 [3]: > 500 nM

SMILES: CC(=O)N1CCC(O)(c2ccc3nccc(N[C@H](C)c4cccc(C(F)F)c4F)c3c2)C1 (stereo partly drawn) [Compound 83, 1-(3-(4-(((R)-1-(3-(difluoromethyl)-2-fluorophenyl)ethyl)amino)quinolin-6-yl)-3-hydroxypyrrolidin-1-yl)ethan-1-one]
- IC50 [1]: 150 to 500 nM
- IC50 [2]: ≤ 10 nM
- GI50 [3]: ≤ 100 nM

SMILES: Cc1c([C@@H](C)Nc2ccnc3ccc(N4C[C@@H]5C[C@H]4CO5)cc23)cccc1C(F)(F)F [Compound 22, 6-((1S,4S)-2-oxa-5-azabicyclo[2.2.1]heptan-5-yl)-N-((R)-1-(2-methyl-3-(trifluoromethyl)phenyl)ethyl)quinolin-4-amine]
- IC50 [1]: > 500 nM
- IC50 [2]: > 100 nM
- GI50 [3]: > 500 nM

SMILES: Cc1c([C@@H](C)Nc2ccnc3ccc(N4CC5CC(C4)O5)cc23)cccc1C(F)(F)F [Compound 19, 6-(6-oxa-3-azabicyclo[3.1.1]heptan-3-yl)-N-((R)-1-(2-methyl-3-(trifluoromethyl)phenyl)ethyl)quinolin-4-amine]
- IC50 [1]: > 500 nM
- IC50 [2]: > 100 nM
- GI50 [3]: 100 to 500 nM

SMILES: Cc1c([C@@H](C)Nc2ccnc3ccc(N4CCN(CC(F)(F)F)CC4)cc23)cccc1C(F)(F)F [Compound 52, (R)-N-(1-(2-methyl-3-(trifluoromethyl)phenyl)ethyl)-6-(4-(2,2,2-trifluoroethyl)piperazin-1-yl)quinolin-4-amine]
- IC50 [1]: > 500 nM
- IC50 [2]: > 100 nM
- GI50 [3]: > 500 nM

SMILES: COC1(c2ccc3nccc(N[C@H](C)c4cccc(C(F)(F)F)c4C)c3c2)CCN(C(=O)CC#N)CC1 [Compound 77, (R)-3-(4-methoxy-4-(4-((1-(2-methyl-3-(trifluoromethyl)phenyl)ethyl)amino)quinolin-6-yl)piperidin-1-yl)-3-oxopropanenitrile]
- IC50 [1]: 150 to 500 nM
- IC50 [2]: 10 to 100 nM
- GI50 [3]: > 500 nM

SMILES: C[C@@H](Nc1ccnc2ccc(N3CCOCC3)cc12)c1cccc(C(F)F)c1F [Compound 48, (R)-N-(1-(3-(difluoromethyl)-2-fluorophenyl)ethyl)-6-morpholinoquinolin-4-amine]
- IC50 [1]: ≤ 150 nM
- IC50 [2]: ≤ 10 nM
- GI50 [3]: ≤ 100 nM

SMILES: CC(=O)N1CC[C@@](F)(c2ccc3nccc(N[C@H](C)c4cccc(C(F)F)c4F)c3c2)C1 [Compound 86, 1-((R)-3-(4-(((R)-1-(3-(difluoromethyl)-2-fluorophenyl)ethyl)amino)quinolin-6-yl)-3-fluoropyrrolidin-1-yl)ethan-1-one]
- IC50 [2]: > 100 nM
- GI50 [3]: > 500 nM

SMILES: [2H]C([2H])([2H])O[C@@]1(c2ccc3nccc(N[C@H](C)c4cccc(C(F)F)c4F)c3c2)CCN(C(C)=O)C1 [Compound 94, 1-((R)-3-(4-(((R)-1-(3-(difluoromethyl)-2-fluorophenyl)ethyl)amino)quinolin-6-yl)-3-(methoxy-d3)pyrrolidin-1-yl)ethan-1-one]
- IC50 [1]: ≤ 150 nM
- GI50 [3]: ≤ 100 nM

SMILES: Cc1c([C@@H](C)Nc2ccnc3ccc(N4CCOCC4)cc23)cccc1C(F)(F)F [Compound 37, (R)-N-(1-(2-methyl-3-(trifluoromethyl)phenyl)ethyl)-6-morpholinoquinolin-4-amine]
- IC50 [1]: 150 to 500 nM
- GI50 [3]: 100 to 500 nM

SMILES: [2H]C([2H])([2H])O[C@]1(c2ccc3nccc(N[C@H](C)c4cccc(C(F)F)c4F)c3c2)CCN(C(C)=O)C1 [Compound 93, 1-((S)-3-(4-(((R)-1-(3-(difluoromethyl)-2-fluorophenyl)ethyl)amino)quinolin-6-yl)-3-(methoxy-d3)pyrrolidin-1-yl)ethan-1-one]
- IC50 [1]: ≤ 150 nM
- GI50 [3]: ≤ 100 nM

SMILES: Cc1c([C@@H](C)Nc2ccnc3ccc(N4CCNCC4)cc23)cccc1C(F)(F)F [Compound 5, (R)-N-(1-(2-methyl-3-(trifluoromethyl)phenyl)ethyl)-6-(piperazin-1-yl)quinolin-4-amine]
- IC50 [2]: 10 to 100 nM
- GI50 [3]: > 500 nM

SMILES: Cc1c([C@@H](C)Nc2ccnc3ccc(N4CCNC[C@H]4C)cc23)cccc1C(F)(F)F [Compound 68, N-((R)-1-(2-methyl-3-(trifluoromethyl)phenyl)ethyl)-6-((R)-2-methylpiperazin-1-yl)quinolin-4-amine]
- IC50 [1]: > 500 nM
- GI50 [3]: > 500 nM

SMILES: CC(=O)N[C@@H]1CCN(c2ccc3ncc(C#N)c(N[C@H](C)c4cccc(C(F)F)c4F)c3c2)C1 [Compound 7, N-((R)-1-(3-cyano-4-(((R)-1-(3-(difluoromethyl)-2-fluorophenyl)ethyl)amino)quinolin-6-yl)pyrrolidin-3-yl)acetamide]
- IC50 [2]: > 100 nM
- GI50 [3]: > 500 nM
